Target: THAP11 C48 (Q96EK4) (Homo sapiens, UniProt Q96EK4)
Test: Competitive isoTOP-ABPP in situ
Format: cell-based
Conditions: fragment 2 at 200 μM, MDA-MB-231 cells

Sequence of THAP11 C48 (Q96EK4) (Q96EK4 whole entry): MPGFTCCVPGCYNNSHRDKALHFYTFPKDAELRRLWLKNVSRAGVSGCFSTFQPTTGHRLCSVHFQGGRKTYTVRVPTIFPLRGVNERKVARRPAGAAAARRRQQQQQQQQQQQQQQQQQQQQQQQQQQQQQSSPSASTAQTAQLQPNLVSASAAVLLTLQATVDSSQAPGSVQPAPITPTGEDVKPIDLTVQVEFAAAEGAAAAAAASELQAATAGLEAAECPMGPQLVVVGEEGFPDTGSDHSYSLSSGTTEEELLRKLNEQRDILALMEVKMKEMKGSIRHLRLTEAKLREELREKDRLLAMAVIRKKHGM

- isoTOP-ABPP reactivity profile (ratio) 2_200 μM_in-situ_231: 7.9
SMILES: COc1ccc2c(c1)CCCN2C(=O)CCl [compound 2]

From US10670605B2, “Cysteine reactive probes and uses thereof” (The Scripps Research Institute, priority 2015, dated 2020)
